Patent US20120029187A1, “HALOALKYLSULFONANILIDE DERIVATIVE” (Nissan Chemical Industries, Ltd., priority 2009, published 2012)

Assays:
Type in all cases: in vivo
transplanted rice = assay: Test Example 1: preemergence treatment under submerged conditions, effect on crop; conditions: dose 2.52 g/a
Method in brief: (§1)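 Alluvial soil was flooded to 4 cm, sown with barnyardgrass, bulrush and ducksalad, and planted with 2.5-leaf rice seedlings. On the seeding day, water-diluted emulsifiable concentrates were applied to the water surface at set doses (g/a). After three weeks in a 25 to 30° C. greenhouse, mortality was scored 0–5.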

bulrush [1] = assay: Test Example 2: herbicidal effects during the vegetation period under submerged conditions; conditions: treatment during the vegetation period under submerged conditions; dose 2.52 g/a
Method in brief: (§2)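 Barnyardgrass, bulrush and ducksalad were co-sown in alluvial soil flooded to 4 cm and grown in a greenhouse at 25 to 30° C. At the 1- or 2-leaf stage, water-diluted emulsifiable concentrates went onto the water surface at set doses (g/a). Herbicidal effect was scored three weeks later on a graded scale.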

barnyardgrass [2] = assay: as above; conditions: treatment during the vegetation period under submerged conditions; dose 2.52 g/a
Method in brief: as §2

ducksalad [3] = assay: as above; conditions: treatment during the vegetation period under submerged conditions; dose 2.52 g/a
Method in brief: as §2

bulrush [4] = assay: Test Example 1: herbicidal effects in preemergence treatment under submerged conditions; conditions: dose 2.52 g/a
Method in brief: as §1

barnyardgrass [5] = assay: as above; conditions: dose 2.52 g/a
Method in brief: as §1

ducksalad [6] = assay: as above; conditions: dose 2.52 g/a
Method in brief: as §1

velvetleaf [7] = assay: Test Example 4: herbicidal effect in foliage treatment; conditions: dose 3.2 g/a, three weeks after application
Method in brief: (§3)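 Doses are given in grams per are of applied compound, sprayed as water-diluted emulsifiable concentrate onto foliage of 14-day-old plants grown at 25 to 30° C. Herbicidal activity was assessed visually on a rating scale after three weeks.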

beadstraw [8] = assay: as above; conditions: dose 3.2 g/a, three weeks after application
Method in brief: as §3

common ragweed [9] = assay: as above; conditions: dose 3.2 g/a, three weeks after application
Method in brief: as §3

giant foxtail [10] = assay: as above; conditions: dose 3.2 g/a, three weeks after application
Method in brief: as §3

posumbu knotweed = assay: as above; conditions: dose 3.2 g/a, three weeks after application
Method in brief: as §3

common lambsquater [11] = assay: as above; conditions: dose 3.2 g/a, three weeks after application
Method in brief: as §3

redroot pigweed [12] = assay: as above; conditions: dose 3.2 g/a, three weeks after application
Method in brief: as §3

barnyardgrass [13] = assay: as above; conditions: dose 3.2 g/a, three weeks after application
Method in brief: as §3

Italian ryegrass [14] = assay: as above; conditions: dose 3.2 g/a, three weeks after application
Method in brief: as §3

common chickweed [15] = assay: as above; conditions: dose 3.2 g/a, three weeks after application
Method in brief: as §3

water foxtail [16] = assay: as above; conditions: dose 3.2 g/a, three weeks after application
Method in brief: as §3

large crabgrass [17] = assay: as above; conditions: dose 3.2 g/a, three weeks after application
Method in brief: as §3

wild oat [18] = assay: as above; conditions: dose 3.2 g/a, three weeks after application
Method in brief: as §3

velvetleaf [19] = assay: Test Example 3: herbicidal effects in soil treatment; conditions: dose 3.2 g/a
Method in brief: (§4)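 Seeds were sown in sterilized diluvial soil and covered with about 1.5 cm of soil. Compounds, formulated as emulsifiable concentrates and diluted with water, were sprayed evenly over the soil surface at set doses in g/a. Herbicidal effect was scored on a rating scale three weeks later.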

beadstraw [20] = assay: as above; conditions: dose 3.2 g/a
Method in brief: as §4

common ragweed [21] = assay: as above; conditions: dose 3.2 g/a
Method in brief: as §4

giant foxtail [22] = assay: as above; conditions: dose 3.2 g/a
Method in brief: as §4

common lambsquater [23] = assay: as above; conditions: dose 3.2 g/a
Method in brief: as §4

redroot pigweed [24] = assay: as above; conditions: dose 3.2 g/a
Method in brief: as §4

barnyardgrass [25] = assay: as above; conditions: dose 3.2 g/a
Method in brief: as §4

Italian ryegrass [26] = assay: as above; conditions: dose 3.2 g/a
Method in brief: as §4

common chickweed [27] = assay: as above; conditions: dose 3.2 g/a
Method in brief: as §4

water foxtail [28] = assay: as above; conditions: dose 3.2 g/a
Method in brief: as §4

large crabgrass [29] = assay: as above; conditions: dose 3.2 g/a
Method in brief: as §4

wild oat [30] = assay: as above; conditions: dose 3.2 g/a
Method in brief: as §4

Compound	a: transplanted rice, effect on crop (evaluation scale 0-5) (transplanted rice)	B: bulrush, herbicidal effect (evaluation scale 0-5) (bulrush [1])	A: barnyardgrass, herbicidal effect (evaluation scale 0-5) (barnyardgrass [2])	C: ducksalad, herbicidal effect (evaluation scale 0-5) (ducksalad [3])	B: bulrush, herbicidal effect (evaluation scale 0-5) (bulrush [4])	A: barnyardgrass, herbicidal effect (evaluation scale 0-5) (barnyardgrass [5])	C: ducksalad, herbicidal effect (evaluation scale 0-5) (ducksalad [6])	I: velvetleaf, herbicidal effect (velvetleaf [7])	O: beadstraw, herbicidal effect (beadstraw [8])	J: common ragweed, herbicidal effect (common ragweed [9])	E: giant foxtail, herbicidal effect (giant foxtail [10])	M: posumbu knotweed, herbicidal effect (posumbu knotweed)	L: common lambsquater, herbicidal effect (common lambsquater [11])	K: redroot pigweed, herbicidal effect (redroot pigweed [12])	A: barnyardgrass, herbicidal effect (barnyardgrass [13])	H: Italian ryegrass, herbicidal effect (Italian ryegrass [14])	N: common chickweed, herbicidal effect (common chickweed [15])	G: water foxtail, herbicidal effect (water foxtail [16])	D: large crabgrass, herbicidal effect (large crabgrass [17])	F: wild oat, herbicidal effect (wild oat [18])	further results
COC(=O)N(c1ccccc1CN1COC(C)(C)CC1=O)S(=O)(=O)C(F)(F)F [II-22]	0 (mortality of less than 5% (almost ineffective))	5 (mortality of 90% or above (nearly complete death))	5 (mortality of 90% or above (nearly complete death))	5 (mortality of 90% or above (nearly complete death))	5 (mortality of 90% or above (nearly complete death))	5 (mortality of 90% or above (nearly complete death))	5 (mortality of 90% or above (nearly complete death))	5 (mortality of 90% or above (nearly complete death))	5 (mortality of 90% or above (nearly complete death))	4 (mortality of at least 70% and less than 90%)	5 (mortality of 90% or above (nearly complete death))	3 (mortality of at least 40% and less than 70%)	3 (mortality of at least 40% and less than 70%)	0 (mortality of less than 5% (almost ineffective))	5 (mortality of 90% or above (nearly complete death))	4 (mortality of at least 70% and less than 90%)	3 (mortality of at least 40% and less than 70%)	5 (mortality of 90% or above (nearly complete death))	5 (mortality of 90% or above (nearly complete death))	0 (mortality of less than 5% (almost ineffective))	I: velvetleaf, herbicidal effect (evaluation scale 0-5) (velvetleaf [19]): 5 (mortality of 90% or above (nearly complete death)); O: beadstraw, herbicidal effect (evaluation scale 0-5) (beadstraw [20]): 5 (mortality of 90% or above (nearly complete death)); J: common ragweed, herbicidal effect (evaluation scale 0-5) (common ragweed [21]): 3 (mortality of at least 40% and less than 70%); E: giant foxtail, herbicidal effect (evaluation scale 0-5) (giant foxtail [22]): 3 (mortality of at least 40% and less than 70%); L: common lambsquater, herbicidal effect (evaluation scale 0-5) (common lambsquater [23]): 4 (mortality of at least 70% and less than 90%); K: redroot pigweed, herbicidal effect (evaluation scale 0-5) (redroot pigweed [24]): 0 (mortality of less than 5% (almost ineffective)); A: barnyardgrass, herbicidal effect (evaluation scale 0-5) (barnyardgrass [25]): 5 (mortality of 90% or above (nearly complete death)); H: Italian ryegrass, herbicidal effect (evaluation scale 0-5) (Italian ryegrass [26]): 5 (mortality of 90% or above (nearly complete death)); N: common chickweed, herbicidal effect (evaluation scale 0-5) (common chickweed [27]): 4 (mortality of at least 70% and less than 90%); G: water foxtail, herbicidal effect (evaluation scale 0-5) (water foxtail [28]): 5 (mortality of 90% or above (nearly complete death)); D: large crabgrass, herbicidal effect (evaluation scale 0-5) (large crabgrass [29]): 5 (mortality of 90% or above (nearly complete death)); F: wild oat, herbicidal effect (evaluation scale 0-5) (wild oat [30]): 0 (mortality of less than 5% (almost ineffective))
CCCCOC(=O)N(c1ccccc1CN1COC(C)(C)CC1=O)S(=O)(=O)C(F)(F)F [II-25]	0 (mortality of less than 5% (almost ineffective))	5 (mortality of 90% or above (nearly complete death))	5 (mortality of 90% or above (nearly complete death))	5 (mortality of 90% or above (nearly complete death))	5 (mortality of 90% or above (nearly complete death))	5 (mortality of 90% or above (nearly complete death))	5 (mortality of 90% or above (nearly complete death))	4 (mortality of at least 70% and less than 90%)	5 (mortality of 90% or above (nearly complete death))	3 (mortality of at least 40% and less than 70%)	5 (mortality of 90% or above (nearly complete death))	1 (mortality of at least 5% and less than 20%)	1 (mortality of at least 5% and less than 20%)	0 (mortality of less than 5% (almost ineffective))	5 (mortality of 90% or above (nearly complete death))	0 (mortality of less than 5% (almost ineffective))	4 (mortality of at least 70% and less than 90%)	5 (mortality of 90% or above (nearly complete death))	5 (mortality of 90% or above (nearly complete death))	0 (mortality of less than 5% (almost ineffective))	I: velvetleaf, herbicidal effect (evaluation scale 0-5) (velvetleaf [19]): 5 (mortality of 90% or above (nearly complete death)); O: beadstraw, herbicidal effect (evaluation scale 0-5) (beadstraw [20]): 5 (mortality of 90% or above (nearly complete death)); J: common ragweed, herbicidal effect (evaluation scale 0-5) (common ragweed [21]): 4 (mortality of at least 70% and less than 90%); E: giant foxtail, herbicidal effect (evaluation scale 0-5) (giant foxtail [22]): 3 (mortality of at least 40% and less than 70%); L: common lambsquater, herbicidal effect (evaluation scale 0-5) (common lambsquater [23]): 0 (mortality of less than 5% (almost ineffective)); K: redroot pigweed, herbicidal effect (evaluation scale 0-5) (redroot pigweed [24]): 0 (mortality of less than 5% (almost ineffective)); A: barnyardgrass, herbicidal effect (evaluation scale 0-5) (barnyardgrass [25]): 4 (mortality of at least 70% and less than 90%); H: Italian ryegrass, herbicidal effect (evaluation scale 0-5) (Italian ryegrass [26]): 1 (mortality of at least 5% and less than 20%); N: common chickweed, herbicidal effect (evaluation scale 0-5) (common chickweed [27]): 4 (mortality of at least 70% and less than 90%); G: water foxtail, herbicidal effect (evaluation scale 0-5) (water foxtail [28]): 5 (mortality of 90% or above (nearly complete death)); D: large crabgrass, herbicidal effect (evaluation scale 0-5) (large crabgrass [29]): 4 (mortality of at least 70% and less than 90%); F: wild oat, herbicidal effect (evaluation scale 0-5) (wild oat [30]): 0 (mortality of less than 5% (almost ineffective))
